Data reported in patent US12247029B2, “Heterocyclic compounds as class II phosphoinositide 3-kinase inhibitors” (Forschungsverbund Berlin e.V., priority 2018, dated 2025).
pIC50: −log10 of the molar value.

What follows are compounds tested against PI3KC2α Δ1-298 (Homo sapiens (Human), UniProt O00443) (assay: ADP-Glo kinase assay with purified PI3KC2α Δ1-298). Conditions: not given.
Format: biochemical
Procedure: Previous studies have shown that PI3KC2α can utilize phosphatidylinositol (PI) or phosphatidylinositol 4-phosphate [PI(4)P] to produce PI(3)P or PI(3,4)P2 respectively but with a preference for PI(3,4)P2 production. To verify that purified PI3KC2α Δ1-298 is active, a radioactive kinase assay was performed with PI as a substrate and different amounts of purified PI3KC2α Δ1-298. The lipid product [PI(3)P] was separated on TLC plates, and the PI(3)P signal was correlated with the amount of PI3KC2α used (FIG. 4A). […] After having confirmed the activity of purified PI3KC2α Δ1-298, an assay suitable for high content screens in multiwell format (ADP-Glo™ assay) was established. The ADP-Glo™ assay has been used for universal detection of ATP hydrolysis. This assay measures ATP hydrolysis occurring during a kinase reaction. For detection, generated ADP is re-converted into ATP with the […] and converted into light by the Ultra-Glo™ Luciferase reagent. The luminescent signal reports kinase activity (FIG. 4B).
The ADP-Glo™ assay was first used to determine the linear correlation range of signal with different amounts of kinase, and then to assess the Kms for ATP and for PI. […] Further optimization of this assay allowed us to carry out medium-to-high throughput screening using low amounts of purified enzyme (at fixed concentrations of: ATP=40 μM, PI=200 μM, PI3KC2α A1−298=10 ng/μl).
Primary screens were performed using the ADP-Glo™ assay in a 384-well format. 37, 224 small molecules were screened for their ability to inhibit kinase activity of PI3KC2α Δ1-298. The concentration of each compound used in the primary screens was 10 μM. Kinase incubations with ATP but without PI were used as negative control samples. This primary screen turned out to be robust with an average z′ factor of 0.57, and therefore judged as successful.
ADP-Glo kinase assay was performed as described by the manufacturer's protocol. Briefly, the kinase assay was performed with a […] of liver PI/ATP/purified PI3KC2α for 20 min in kinase reaction buffer described above. To deplete the remaining ATP from the reaction, 5 μl of […] was added to the kinase reaction mixture and incubated for 40 min. For detection, the generated ADP is re-converted into ATP and converted into light by the Ultra-Glo™ luciferase in kinase detection reagent. The luminescent signal positively correlates with kinase activity. All reactions are performed in Corning® 384 well-white plates.

PI3KC2α Δ1-298, sequence (O00443 299-1686): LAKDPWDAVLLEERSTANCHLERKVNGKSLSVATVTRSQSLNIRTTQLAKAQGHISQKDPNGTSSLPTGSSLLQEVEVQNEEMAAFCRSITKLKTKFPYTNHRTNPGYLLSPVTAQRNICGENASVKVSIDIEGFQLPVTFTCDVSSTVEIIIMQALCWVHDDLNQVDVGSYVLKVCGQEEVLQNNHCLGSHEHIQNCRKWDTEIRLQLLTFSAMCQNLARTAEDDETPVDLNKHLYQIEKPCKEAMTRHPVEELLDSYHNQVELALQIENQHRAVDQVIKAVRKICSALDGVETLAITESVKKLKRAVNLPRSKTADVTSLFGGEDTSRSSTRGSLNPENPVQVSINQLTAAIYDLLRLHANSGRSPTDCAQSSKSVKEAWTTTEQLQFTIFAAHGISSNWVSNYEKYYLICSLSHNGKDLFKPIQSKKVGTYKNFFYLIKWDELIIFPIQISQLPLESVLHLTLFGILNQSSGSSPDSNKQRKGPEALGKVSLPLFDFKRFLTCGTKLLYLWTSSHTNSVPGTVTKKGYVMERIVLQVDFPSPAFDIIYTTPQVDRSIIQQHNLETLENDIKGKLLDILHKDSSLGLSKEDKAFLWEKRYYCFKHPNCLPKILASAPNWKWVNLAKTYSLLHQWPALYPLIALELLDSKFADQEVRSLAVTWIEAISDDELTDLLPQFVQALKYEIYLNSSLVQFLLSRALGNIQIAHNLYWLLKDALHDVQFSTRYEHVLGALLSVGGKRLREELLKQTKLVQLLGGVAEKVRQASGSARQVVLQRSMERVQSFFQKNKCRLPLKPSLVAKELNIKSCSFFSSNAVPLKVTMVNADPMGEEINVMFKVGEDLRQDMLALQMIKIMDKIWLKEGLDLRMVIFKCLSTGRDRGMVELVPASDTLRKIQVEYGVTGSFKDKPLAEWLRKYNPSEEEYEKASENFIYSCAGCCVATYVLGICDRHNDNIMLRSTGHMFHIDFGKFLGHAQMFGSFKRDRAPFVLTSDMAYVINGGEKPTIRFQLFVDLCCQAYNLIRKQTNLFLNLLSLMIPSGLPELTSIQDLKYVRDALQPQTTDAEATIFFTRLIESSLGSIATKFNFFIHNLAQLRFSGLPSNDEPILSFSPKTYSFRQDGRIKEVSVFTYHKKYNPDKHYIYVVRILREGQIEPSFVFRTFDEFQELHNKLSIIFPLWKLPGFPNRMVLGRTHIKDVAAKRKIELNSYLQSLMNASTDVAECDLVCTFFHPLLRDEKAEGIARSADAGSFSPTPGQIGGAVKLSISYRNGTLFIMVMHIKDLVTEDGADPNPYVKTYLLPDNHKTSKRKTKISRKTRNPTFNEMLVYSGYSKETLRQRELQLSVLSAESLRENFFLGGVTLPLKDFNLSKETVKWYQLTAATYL

inhibition at 10 µM [%]	SMILES
31	O=C(CCc1nc2nccnc2c(=O)n1CCc1ccccc1)Nc1ccccc1 [Example Compound 100, 3-(4-Oxo-3-phenethyl-3,4-dihydropteridin-2-yl)-N-phenylpropanamide]

Same assay, conditions: read-out: IC50 (PI3KC2α; ADP-Glo™ assay)

SMILES	pIC50
O=C(CSc1nc2nccnc2c(=O)n1Cc1ccco1)Nc1nccs1 [Example Compound 32, 2-((3-(Furan-2-ylmethyl)-4-oxo-3,4-dihydropteridin-2-yl)thio)-N-(thiazol-2-yl)acetamide]	5.74
Cn1c(=O)c2nc(CSc3nc4nccnc4c(=O)n3CCc3ccccc3)[nH]c2n(C)c1=O [Example Compound 68, 1,3-Dimethyl-8-(((4-oxo-3-phenethyl-3,4-dihydropteridin-2-yl)thio)methyl)-3,9-dihydro-1H-purine-2,6-dione]	5.85
N#Cc1ccc(-n2c(SCc3nc4ccccc4[nH]3)nc3nccnc3c2=O)cc1 [Example Compound 86, 4-(2-(((1H-Benzo[d]imidazol-2-yl)methyl)thio)-4-oxopteridin-3(4H)-yl)benzonitrile]	5.96
O=C(CSc1nc2nccnc2c(=O)n1C1CCc2ccccc21)Nc1nccs1 (centres unmarked) [Example Compound 19, 2-((3-(2,3-Dihydro-1H-inden-1-yl)-4-oxo-3,4-dihydropteridin-2-yl)thio)-N-(thiazol-2-yl)acetamide]	5.80
O=c1c2nccnc2nc(SCc2nc3ccccc3[nH]2)n1C1Cc2ccccc2C1 [Example Compound 88, 2-(((1H-Benzo[d]imidazol-2-yl)methyl)thio)-3-(2,3-dihydro-1H-inden-2-yl)pteridin-4(3H)-one]	6.89
CS(=O)(=O)c1ccc(-c2csc(NC(=O)CSc3nc4nccnc4c(=O)n3CCc3ccccc3)n2)cc1 [Example Compound 53, N-(4-(4-(Methylsulfonyl)phenyl)thiazol-2-yl)-2-((4-oxo-3-phenethyl-3,4-dihydropteridin-2-yl)thio)acetamide]	5.89
O=C(CSc1nc2nccnc2c(=O)n1Cc1ccco1)Nc1ccccc1F [Example Compound 33, N-(2-Fluorophenyl)-2-((3-(furan-2-ylmethyl)-4-oxo-3,4-dihydropteridin-2-yl)thio)acetamide]	5.10
O=c1c2nccnc2nc(SCc2nc3cc(Br)cnc3[nH]2)n1CCc1ccccc1 [Example Compound 74, 2-(((6-Bromo-3H-imidazo[4,5-b]pyridin-2-yl)methyl)thio)-3-phenethylpteridin-4(3H)-one]	6.04
O=C(CSc1nc2nccnc2c(=O)n1-c1cccc(-c2ccccc2)c1)Nc1nccs1 [Example Compound 17, 2-((3-([1,1′-Biphenyl]-3-yl)-4-oxo-3,4-dihydropteridin-2-yl)thio)-N-(thiazol-2-yl)acetamide]	5.05

The remaining lines, values ahead:

pIC50	SMILES
5.20	Cc1nnc(NC(=O)CSc2nc3nccnc3c(=O)n2CCc2cccc(F)c2)s1 [Example Compound 5, 2-((3-(3-Fluorophenethyl)-4-oxo-3,4-dihydropteridin-2-yl)thio)-N-(5-methyl-1,3,4-thiadiazol-2-yl)acetamide]
4.46	O=C(CSc1nc2nccnc2c(=O)n1CCc1ccccc1)Nc1ncc(Cl)s1 [Example Compound 45, N-(5-Chlorothiazol-2-yl)-2-((4-oxo-3-phenethyl-3,4-dihydropteridin-2-yl)thio)acetamide]
5.15	O=C(CSc1nc2nccnc2c(=O)n1CCc1ccccc1)Nc1nc(-c2ccc(Cl)cc2)cs1 [Example Compound 49, N-(4-(4-Chlorophenyl)thiazol-2-yl)-2-((4-oxo-3-phenethyl-3,4-dihydropteridin-2-yl)thio)acetamide]
5.22	O=C(CSc1nc2nccnc2c(=O)n1CCc1ccccc1)Nc1ccccc1F [Example Compound 15, N-(2-Fluorophenyl)-2-((4-oxo-3-phenethyl-3,4-dihydropteridin-2-yl)thio)acetamide]
